{
  "source": "patent EP0085283A1",
  "about": "“Pyroglutamyl-tryptophan derivatives, process for their preparation and their therapeutic applications” (Società Italo-Britannica L. Manetti - H. Roberts & C., priority 1981, dated 1983)",
  "type_in_all_cases": "in vivo",
  "key": {"[1]": {"system": "male rats of Wistar strain", "assay": "Hot plate test for analgesia", "conditions": "10 mg/kg ip", "protocol": "(§1) Behavioral effects of DL-pyroglutamyl-tryptophan (pGlu-Trp) have been studied in male rats of Wistar strain (purchased from Morini, Italy), weighing 130+10 g at the onset of experiments. Animals were kept under light- dark cycle (lights on between 8.00 and 20.00) with standard food and water available ad lib. Animals were injected intraperitoneally (ip) with 10 or 100 mg/kg of pGlu-Trp dissolved in a solution of NaHCO3 1 N and adjusted at pH 7.4 with HC1 0.1 N. Control animals received injection of the vehicle alone. Injections were performed 1 h prior to the behavioral testing. The animals were used only once for the behavioral experiments.\nHot plate test for analgesia was studied with a circular hot plate ([…]) where the animals were placed singularly.\nThe latency in sec to the first behavioral reaction to hot pain (licking of paw) was recorded."}, "[2]": {"system": "male rats of Wistar strain", "assay": "Acquisition of shuttle-box active avoidance behavior (single session test)", "conditions": "1 h prior to testing", "protocol": "as §1\nAcquisition of active avoidance behavior was studied in a single session test. The rats were trained to avoid the unconditioned stimulus (US) of a scrambled electrical footshock (0.20 mA) delivered through the grid floor. The conditioned stimulus (CS) was a buzzer presented for 5 sec prior to the US. If no escape occurred within 20 sec of CS/US presentation, the shock was terminated. A maximum of 30 conditioning trials were given with a variable intertrial interval averaging 60 sec. The learning criterion was 5 consecutive conditioned avoidance responses (CARs). For those animals that reached this criterion in less than 30 trials, the remaining trials up to a total of 30 were considered as lARs. Indexes of avoidance behavior were the total number of CARs and the number of learners."}, "[3]": {"system": "male rats of Wistar strain", "assay": "Open field behavior in a circular open field arena", "conditions": "10 mg/kg ip", "protocol": "as §1\nOpen field behavior was studied in a circular open field arena. Ambulation (number of floor units entered), rearing, grooming and defecation scores were recorded during a 5-min observation session."}},
  "data": [
    {"smiles": "O=C1CC[C@@H](C(=O)N[C@@H](Cc2c[nH]c3ccccc23)C(=O)O)N1", "note": "(racemic) [pGlu-Trp, pyroglutamyltryptophan]", "values": [
      {"measurement": "analgesic effect (latency to licking of paw)", "setting": "[1]", "value": "No analgesic effect"},
      {"measurement": "total number of CARs", "setting": "[2]; 10 mg/kg ip, controls 14.8+1.50, difference not significant", "value": "12.7+1.99"},
      {"measurement": "number of CARs", "setting": "[2]; 100 mg/kg ip, controls 14.2+1.47, p<0.02", "value": "19.0+1.21"},
      {"measurement": "percentage of learners", "setting": "[2]; 100 mg/kg ip, controls 66.6%", "value": 90.9, "unit": "%"},
      {"measurement": "defecation boli", "setting": "[3]", "value": "decreased"},
      {"measurement": "Ambulation (number of floor units entered)", "setting": "[3]; 5-min observation session, controls 94.5+4.7", "value": "78.5+4.4"},
      {"measurement": "grooming", "setting": "[3]; treated versus control rats", "value": "No difference"},
      {"measurement": "rearing", "setting": "[3]; treated versus control rats", "value": "No difference"}
    ]}
  ]
}
